Results from patent US10294217B2, “Fluoroindole derivatives as muscarinic M1 receptor positive allosteric modulators” (Suven Life Sciences Limited, priority 2015, dated 2019).

Tested on: cerebral blood flow in the frontal cortex
Test: Modulation of cerebral blood flow in frontal cortex
Format: in vivo
Conditions: anaesthetized rats, intravenous, Laser Doppler, FIG. 2
Procedure: Modulation of Cerebral Blood Flow in Frontal Cortex:
The effect of test compound on modulation of cerebral blood flow was evaluated using rats.
Rats were acclimatized to the laboratory environment for at least 7 days. Rats (300-350 grams) were housed in a group of four in a controlled environment (Temp=21±3° C.; Humidity=30-70%) and maintained on a 12-hour light/dark cycle with lights on at 07:00 AM. Food and water was provided ad libitum.
Rats were anaesthetized with 12% urethane (i.p.). Animal's body core temperature was maintained at 37° C. via heating pad and rectal temperature probe. A small incision was made at one of the ventral side of the hind limb and the femoral vein was cannulated with PE10 tubing for drug application. Then animal was placed into a stereotaxic frame and a midline incision was made to expose the skull. A burr hole was drilled over the frontal cortex (stereotaxic coordinates 1 mm anterior and 4 mm lateral to bregma). Oxygen was supplied through the nose cone of the seterotaxic apparatus which was connected to the controlled gaseous supplier with a flow of 200 mL/minute. Laser Doppler probe (AD Instruments Inc) was placed over the hole to monitor cerebral blood flow. […] Data obtained was calculated as percent increase relative to resting basal blood flow level. […]

Cn1cc(Cn2cc(C(=O)N[C@H]3CCCC[C@@H]3O)c3c(F)cccc32)cn1 [Example 1, N-[(1S,2S)-2-Hydroxycyclohexyl]-1-(1-methyl-1H-pyrazol-4-ylmethyl)-4-fluoro-1H-indole-3-carboxamide]
cerebral blood flow: significantly increased the cerebral blood flow
